A short description of one data set: in vitro. Conditions: human, heparinized human plasma.
In data set [1] the test system is spleen cells of mice incubated with SRBC. The data set is described as follows: Plaque forming cells test. The class given is in vivo. The method, then:
As the in vivo test, the so-called "plaque forming cells" test described by N. Jerne (same reference as above), has been used. The test is carried out incubating spleen cells of mice who had received the test peptides, with SRBC and counting the number of plaques formed. In the actual practice, groups of 3 mice each, received about 1 ng/mouse of test peptide i.p. one hour after the antigen (SRBC) inoculation. Four days after this treatment, the spleen cells are removed and the test is immediately carried out.
The "plaque forming cells" test has been repeated also by treating the test mice with TP5 or with the corresponding retro-inverso analog TP5-RI1-2, three days before antigen (SRBC) injection.

For data set [2] the following is noted: T.P.Tischio et al. 1979; cited from earlier work.
The next data set deals with cord blood cells (CBC). The data set is described as follows: Rosette E formation test with sheep red blood cells. Format: cell-based, human. Particulars: overnight at 37° C.; for % formation of Rosette E: 5% CO2, blank 23; for % of live cells after incubation: 5% CO2, blank 100. The text has this:
In particular, as the in vitro test, the Rosette E formation test has been performed both on peripheral blood […] (PBMC) and on cord blood cells (CBC). The CBC used give a percentage of Rosette E formation with sheep red blood cells (SRBC) of 20-40%. The test is based on the capability of human T cells of forming Rosette E with SRBC. The assay which has been carried out according to the metodology described by O.G.Bier at al. in Fundamentals of Immunology--Springer-Verlag (1981), consists in the incubation of CBC, with or without the test peptides, overnight at 37° C. in the presence of 5% CO2.

A further data set relates to immune response. Particulars: thymectomized mice, preliminary in vivo tests; L.Kisfaludy et al. 1983; cited from earlier work.
Where [3] appears, read: mice, about 1 ng/mouse i.p. one hour after antigen (SRBC) inoculation, spleen cells four days later, blank 4.62.
Where [4] appears, read: mice, about 1 ng/mouse i.p. one hour after antigen (SRBC) inoculation, spleen cells four days later, blank 42.000.

Where a SMILES comes first, the peptide text is derived from it.

Experimental for in vitro: Incubations are carried out at 37° C., and aliquots (100 μl each) were collected at time intervals, blocked by treatment with 10% trifluoroacetic acid and centrifuged (10,000 rpm)
for 5'. Aliquots from the supernatant were assayed . by chromatography and the concentration of the test peptide at the different times was measured.

With `CC(C)[C@H](NC(=O)[C@H](CC(=O)O)NC(=O)C(CCCCN)C(=O)N[C@@H](N)CCCNC(=N)N)C(=O)N[C@@H](Cc1ccc(O)cc1)C(=O)O` (stereo partly drawn) [TP5-RI1-2, AcOH·H-gArg-(R,S)mLys-Asp-Val-Tyr--OH], the half-life – broadly, the time in which the quantity being followed falls by half – in the data set “in vitro” was determined as 32 min.
As to `CC(C)[C@H](NC(=O)[C@H](CC(=O)O)NC(=O)[C@H](CCCCN)NC(=O)[C@@H](N)CCCN=C(N)N)C(=O)N[C@@H](Cc1ccc(O)cc1)C(=O)O` [TP5, H-Arg-Lys-Asp-Val-Tyr-OH] (H-RKDVY-OH), the “Log Number of plaques” value in data set [1] (mice treated three days before antigen (SRBC) injection, blank 4.64) was found to be 4.79; in data set [1] (setting [3]) it was 4.68. In addition, the “Number of plaques formed” value in data set [1] (mice treated three days before antigen (SRBC) injection, blank 44.000) stood at 62.000; in data set [1] (setting [4]), 48.375. Also, in data set [2], the half-life in serum result is recorded as “approximately 1.5 minute”. The “% formation of Rosette E” value stood at 28% with cord blood cells (CBC) (10 ng/ml) and 33% with cord blood cells (CBC) (100 ng/ml). For the same molecule, the “% of live cells after incubation” value in the data set with cord blood cells (CBC) (10 ng/ml) and with cord blood cells (CBC) (100 ng/ml) was 65% each time.
Regarding `N=C(N)NCCC[C@H](N)C(=O)N[C@@H](CCCCN)C(=O)N[C@@H](CC(=O)O)C(=O)O` [TP5^(1-3), H-Arg-Lys-Asp-OH] (H-Arg-Lys-Asp-OH), the “restoration of the immune response” value in the data set on immune response is “able to restore the immune response in thymectomized mice”. The “Log Number of plaques” value in data set [1] (setting [3]) is recorded as 4.67. Further, the “Number of plaques formed” value in data set [1] (setting [4]) was 48.917.
Consider “AcOH.multidot.H-gArg-(R,S)mLys-Asp--OH [TP5^(1-3) -RI1-2]”, for which the “Log Number of plaques” value in data set [1] (setting [3]) was 4.78. Besides, the “Number of plaques formed” value in data set [1] (setting [4]) is recorded as 63.125.

Source of the values: patent publication US5200506A, “Process for preparing new thymopentin retro-inverso analogs and fragments thereof and the intermediates obtained therein” (Eniricerche S.p.A., priority 1987, dated 1993).
